Experimental data from patent US7335756B2, “Retinoic acid metabolizing cytochrome P450” (Cytochroma Inc., priority 2001, dated 2008).
“And” between values parts separate entries of the source, which are not always exact repeats. Equal values may be shown once. Read-outs that look alike come from different tables or passages of the source. Values belong to the molecule of their own block, whether it stands above or below them.

Columns and labels:
[1] = biological target: T1, CYP26-B (Homo sapiens, UniProt Q9NR63); experiment: [3H]-RA-metabolism inhibition in Sf9-Bac-CYP26-B insect microsomes; assay type: biochemical; details: at much higher concentrations
T1 sequence (Q9NR63 1-512): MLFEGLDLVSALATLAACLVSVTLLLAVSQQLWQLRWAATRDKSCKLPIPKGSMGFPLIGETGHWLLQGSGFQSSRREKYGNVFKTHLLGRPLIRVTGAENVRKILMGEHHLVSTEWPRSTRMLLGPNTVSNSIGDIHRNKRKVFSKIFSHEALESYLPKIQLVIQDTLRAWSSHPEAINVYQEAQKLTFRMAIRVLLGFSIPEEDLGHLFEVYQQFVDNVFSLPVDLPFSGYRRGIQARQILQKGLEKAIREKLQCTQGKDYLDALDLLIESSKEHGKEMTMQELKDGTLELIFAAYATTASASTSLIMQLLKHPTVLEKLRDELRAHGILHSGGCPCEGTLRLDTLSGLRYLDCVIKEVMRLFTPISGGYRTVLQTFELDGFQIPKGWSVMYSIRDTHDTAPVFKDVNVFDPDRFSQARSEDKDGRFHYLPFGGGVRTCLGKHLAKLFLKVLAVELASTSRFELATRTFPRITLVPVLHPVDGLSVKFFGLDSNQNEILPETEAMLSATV
Procedure: (§1) RA-metabolism activity was assessed using RA-metabolism microsomes-based assay and Bligh Dyer extraction as follows: Using an automatic repeating-pipette, gently thawed and homogenized microsomes were plated in a 48-well plate in final volume of 150 μl of storage buffer containing 0.5 mg/ml BSA. At indicated concentration 2 μl of compound solution was added to the assay and 2 μl of DMSO was added to MS control (quadruplet) and No-MS control. 50 μl of [^3H]-RA solution (30,000 cpm, 2 nM final concentration) was added. […] After 1-hour incubation the reaction was stopped by adding 5 μl of 10% acetic acid. Organic and aqueous soluble radio-labelled metabolites were extracted using the Bligh-Dyer procedure. Saturated activity obtained in presence of NADPH at 5 μg of microsomes, FIG. 14.

[2] = biological target: T2, CYP26-A (Homo sapiens, UniProt O43174, E104D/H105D/L421A/M420S); experiment: 9-cis-RA binding assay, CYP26-A; details: substrate 0.05 nM to 1000 nM, linear, Kd not determinable
T2 sequence (O43174 1-497 E104D/H105D/M420S/L421A): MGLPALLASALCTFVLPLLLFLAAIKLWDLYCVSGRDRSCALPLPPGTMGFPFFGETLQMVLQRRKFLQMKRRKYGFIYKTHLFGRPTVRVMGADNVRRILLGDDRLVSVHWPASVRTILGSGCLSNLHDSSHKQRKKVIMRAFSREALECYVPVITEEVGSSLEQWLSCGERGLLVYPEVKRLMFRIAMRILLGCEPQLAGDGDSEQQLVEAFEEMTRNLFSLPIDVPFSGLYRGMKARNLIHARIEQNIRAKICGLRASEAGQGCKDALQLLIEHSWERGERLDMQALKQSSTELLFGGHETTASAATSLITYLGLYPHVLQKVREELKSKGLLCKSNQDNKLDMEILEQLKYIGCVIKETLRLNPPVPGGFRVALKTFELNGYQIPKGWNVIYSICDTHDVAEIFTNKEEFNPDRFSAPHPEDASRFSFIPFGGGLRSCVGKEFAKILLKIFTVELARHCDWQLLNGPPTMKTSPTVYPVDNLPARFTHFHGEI

[3] = biological target: T1, CYP26-B; experiment: ATRA and 9-cis-RA binding assay, CYP26-B microsomes; parameters: made in house; host or cells: HeLa cells stably expressing CYP26-B, microsomal fraction; details: substrate 0.05 nM to 1000 nM, linear, Kd not determinable
[4] = biological target: T3, P450RAI-3 (Homo sapiens, UniProt Q6V0L0, F447L); experiment: [3H]-RA-metabolism inhibition, transient Cos-P450RAI-3 cell-based assay; parameters: expressed in transfected cells; host or cells: COS-1 (transient, pcDNA-P450RAI-3, Fugene); details: at lower concentrations
T3 sequence (Q6V0L0 1-522 F447L): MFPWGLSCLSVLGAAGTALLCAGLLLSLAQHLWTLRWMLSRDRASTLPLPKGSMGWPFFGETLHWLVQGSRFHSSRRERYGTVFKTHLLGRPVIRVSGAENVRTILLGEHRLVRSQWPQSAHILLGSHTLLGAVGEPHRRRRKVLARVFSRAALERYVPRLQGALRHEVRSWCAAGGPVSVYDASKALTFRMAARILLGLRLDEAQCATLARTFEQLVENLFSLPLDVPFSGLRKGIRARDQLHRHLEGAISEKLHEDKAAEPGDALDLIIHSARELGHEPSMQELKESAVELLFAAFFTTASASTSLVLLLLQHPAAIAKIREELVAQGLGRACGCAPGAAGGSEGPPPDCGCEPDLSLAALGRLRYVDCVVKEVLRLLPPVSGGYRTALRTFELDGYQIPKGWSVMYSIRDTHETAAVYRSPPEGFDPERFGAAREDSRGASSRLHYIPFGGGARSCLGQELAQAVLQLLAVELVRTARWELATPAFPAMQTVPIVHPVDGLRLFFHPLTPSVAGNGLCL
Procedure: (§2) The purpose of these experiments is to determine the specific substrates for P450RAI-3. […] The RA metabolism reaction was started by the addition of 50 ul of [^3H]-RA solution (20000 cpm, 2 nM final concentration). Cells were incubated for 3 hours in a humidified CO2 incubator at 37 degrees Celsius. The reaction was stopped by the addition of 5 ul of 10% acetic acid. Organic and aqueous soluble radio-labelled metabolites were extracted using the Bligh-Dyer procedure.

[5] = biological target: T3, P450RAI-3; experiment: ATRA and 9-cis-RA binding assay, Sf9-Bac-P450RAI-3 insect microsomes; details: for Kd: Table 4 prints no unit
[6] = biological target: T3, P450RAI-3; experiment: ATRA / 9-cis-RA metabolism in pcDNA-P450RAI-3 transfected Cos-1 cells (Bligh-Dyer, HPLC); assay type: cell-based; parameters: expressed in transfected cells; host or cells: COS-1 (transient, pcDNA-P450RAI-3, Fugene); details: 2 nM radio-labeled substrate, 3 hours
Procedure: Mammalian Cos-1 cells were transfected with either pcDNA-P450RAI-3 or pcDNA-control vector using Fugene™ (Roche diagnostic) according to the manufacturers directions. After 48 hours post-tranfection, cells were washed with PBS and assessed for ATRA-metabolism activity as described Briefly, transfected cells were incubated with radio-labeled ^3[H]-ATRA (18000 cpm, 2 nM) for 3 hours. Organic and Water-soluble metabolites were extracted using Bligh-Dyer procedure and radioactivity counted (FIG. 10).
HPLC analysis of the organic metabolites: the Bligh-Dyer organic button-layer was dried out and residues were suspended in HPLC solvent and then analyzed by HPLC as described in [White et al, PNAS, vol 97, pg 6403-6408], FIG. 11.
Mammalian Cos-1 cells were transfected with either pcDNA-P450RAI-3 or pcDNA-control vector according to the manufacturers directions using Fugene (Roche). After 48 hours post-tranfection, cells were washed with PBS and assessed for 9-cis-RA-metabolism activity as described using Bligh-Dyer procedure. Briefly, transfected cells were incubated with radio-labeled ^3[H]-9-cis-RA (38000 cpm, 2 nM) for 3 hours. Organic and Water-soluble metabolites were extracted using Bligh-Dyer procedure and radioactivity counted, FIG. 19.

[7] = biological target: T3, P450RAI-3; experiment: LC/MS analysis of ATRA and 9-cis-RA metabolism in Hela-P450RAI-3 stable cells; details: 5 hours
Procedure: After 5 hours incubation at 37° C., cells were acidified with acetic acid and total retinoids were extracted using Ethyl acetate method. The organic upper layer was pooled and evaporated in speed-vacuum, and dried residues were dissolved in HPLC mobile solvent and analyzed in LC/MS.
The HPLC system consisted of a waters alliance 2690 separations module. Chromatography was obtained on an Eclipse X DB-C18 reverse phase column (5 um, 2.1×150 mm from HP). A gradient elution program was used using acetonitrile, water and 10% acetic acid. The flow was held at 0.2 ml/min.
Mass Spectrometry condition used for this work consisted of a Micro-mass Quatro Ultima Tandem triple quadruple mass spectrometer equipped with electrospray interface (ESI) and operated in a negative mode.

[8] = biological target: T1, CYP26-B; experiment: [3H]-RA-metabolism inhibition in mammalian microsomes from stable Hela-CYP26-B cells; assay type: biochemical; parameters: made in house; host or cells: HeLa cells stably expressing CYP26-B, microsomal fraction
Procedure: as §1
(§3) Microsomes prepared from either stable Hela-CYP26-B or transient P450RAI-3-transfected Cos cells were used.

[9] = biological target: T1, CYP26-B; experiment: [3H]-RA-metabolism inhibition, transient Cos-CYP26-B cell-based assay; details: at lower concentrations
[10] = biological target: T3, P450RAI-3; experiment: [3H]-RA-metabolism inhibition in Sf9-Bac-P450RAI-3 insect microsomes; assay type: biochemical; details: 2 nM [3H]-RA, NADPH, 1 hour, read-out: ID50 (nM) Sf9-P450RAI-3
Procedure: Microsomes from P450RAI-3 and CYP26B infected Sf-9 cells were made as follows: exponentially growing cells were harvested, washed with ice-cold PBS, counted then homogenized and sonicated in lysis buffer containing protease inhibitors cocktail (10^8 cells par 5 ml lyses buffer). Since P450RAI-3 is a microsomal cytochrome, it preferably uses NADPH cytochromic P450 reductase and a flavoprotein for activity. The microsomes were isolated by differential centrifugations (10 min at 800×g, than 10 min at 10,000×g and finally the postmitichondirial supernatant was centrifuged at 100,000×g for 60 min using ultracentrifuge (Beckman). The microsomal pellet was isolated and homogenized gently in the storage buffer containing protease inhibitors cocktail. Protein concentration in the microsomal preparation was determined using a […] reaction assay kit with BSA as standards (Pierce). The absorbance at 562 nm of standards (BSA at 1, 0.5, 0.25, 0.125, and 0.0625 mg/ml) and 3 dilutions of microsomes samples (⅕, 1/10 and 1/20) was determined using an automatic microplate reader (μQuant, BioTek instruments Inc.). The protein concentration directly calculated by the software (KCJunior). […] Microsomes were assessed for P450 content by carbon monoxide assay and total P450 content was determined at 3 nmol/ml. […]

[11] = biological target: T3, P450RAI-3; experiment: [3H]-RA-metabolism inhibition (substrate competition) in P450RAI-3 stable transfected Hela cells; assay type: cell-based; parameters: expressed in transfected cells; details: 2 nM [3H]-RA
Procedure: as §2

[12] = biological target: T3, P450RAI-3; experiment: [3H]-RA-metabolism inhibition in mammalian microsomes from transient P450RAI-3-transfected Cos cells; assay type: biochemical; parameters: expressed in transfected cells; host or cells: COS-1 (transient, pcDNA-P450RAI-3, Fugene)
Procedure: RA-metabolism activity was assessed using RA-metabolism microsomes-based assay and Bligh Dyer extraction as follows: Using an automatic repeating-pipette, gently thawed and homogenized microsomes were plated in a 48-well plate in final volume of 150 μl of storage buffer containing 0.5 mg/ml BSA. At indicated concentration 2 μl of compound solution was added to the assay and 2 μl of DMSO was added to MS control (quadruplet) and No-MS control. 50 μl of [^3H]-RA solution (30,000 cpm, 2 nM final concentration) was added. The microsomes assay with the compounds and the [^3H]-ATRA were incubated first for 10 min at 37° C., and then the reaction started by adding 20 μl of NADPH solution (or 1 mM final). After 1-hour incubation the reaction was stopped by adding 5 μl of 10% acetic acid. Organic and aqueous soluble radio-labelled metabolites were extracted using the Bligh-Dyer procedure. Saturated activity obtained in presence of NADPH at 5 μg of microsomes, FIG. 14.
as §3

SMILES: CC1=C(/C=C/C(C)=C\C=C\C(C)=C\C(=O)O)C(C)(C)CCC1 [9-cis-RA, 9-cis-retnoic acid]
- competition for CYP26-B [1]: very weak 9-cis-RA competition
- binding to CYP26-A [2]: weak binding
- binding to CYP26-B [3]: weak binding
- competition / inhibition of P450RAI-3 [4]: competed only for P450RAI-3
- Kd ([5]; read-out: Kd, substrate binding to P450RAI-3, insect microsomes, nM): 69 nM
- binding to P450RAI-3 microsomes ([5]; substrate 0.05 nM to 1000 nM): Very good binding
- metabolism by P450RAI-3 [6]: converted 9-cis-RA to the hydoxy and oxo-metabolites and to more polar water-soluble metabolites
- metabolites formed by P450RAI-3 [7]: hydroxy and oxo-metabolites

- competition for CYP26B [8]: did not compete at lower concentrations
- competition / inhibition of P450RAI-3 [4]: not a substrate
- competition / inhibition of CYP26-B [9]: not a substrate
SMILES: CC1=C(/C=C/C(C)=C/C=C/C(C)=C\C(=O)O)C(C)(C)CCC1 [13-cis-RA]

- IC50 [10]: > 10000 nM
- IC50 ([11]; read-out: ID50, competition for P450RAI-3 [3H]-RA metabolism): 70 µM
- competition / inhibition of P450RAI-3 [4]: weak inhibitor
- Kd ([5]; Kd, competition of ATRA binding to P450RAI-3, ketoconazole up to 100 μM, μM): 70500 nM and 75000 nM
- inhibition at 10 µM ([5]; read-out: inhibition of ATRA binding to P450RAI-3): 15%
- IC50 ([12]; read-out: ID50 (nM) P450RAI-3): 72000 nM
- IC50 ([12]; read-out: ID50 P450RAI-3): 70000 nM
- competition / inhibition of CYP26-B [9]: inhibited
SMILES: CC(=O)N1CCN(c2ccc(OCC3COC(Cn4ccnc4)(c4ccc(Cl)cc4Cl)O3)cc2)CC1 (stereo not drawn) [Ketoconazole, ketoconazole]

- substrate for CYP26-C [11]: not substrates
SMILES: CC1=C(/C=C/C(C)=C/C=C/C(C)=C/C=O)C(C)(C)CCC1 [Retinal]

- substrate for CYP26-C [11]: not substrates
SMILES: CC1=C(/C=C/C(C)=C/C=C/C(C)=C/CO)C(C)(C)CCC1 [Retinol]
